According to patent publication US20260265238A1, “COMPOUNDS AND PHARMACEUTICAL COMPOSITIONS THAT DEGRADE SWI/SNF-RELATED MATRIX-ASSOCIATED ACTIN-DEPENDENT REGULATOR OF CHROMATIN SUBFAMILY A” (Plexium, Inc., priority 2023, published 2026):

Key:
[1] = target: T1, SMARCA2-HiBiT HeLa cells (protein which is expressed from the SMARCA2 gene) (Homo sapiens, UniProt P51531); assay: SMARCA2 degradation assay (HiBiT-fusion HeLa cell line, 24 h, luminescence); assay type: cell-based
T1 construct: protein which is expressed from the SMARCA2 and SMARCA4 genes; host or cells: HeLa (SMARCA2-HiBiT engineered line)
How it was run: (§1)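 In this 24-hour cellular degradation readout, HiBiT-tagged HeLa lines received compound at up to typically 10 μM down to 300 pM in 10 points. After lysis with LgBiT and substrate, luminescence signals were used to build dose-response curves for DC50.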

[2] = target: T2, SMARCA4-HiBiT HeLa cells (protein which is expressed from the SMARCA4 gene) (Homo sapiens, UniProt P51532); assay: SMARCA4 degradation assay (HiBiT-fusion HeLa cell line, 24 h, luminescence); assay type: cell-based
T2 construct: protein which is expressed from the SMARCA2 and SMARCA4 genes; host or cells: HeLa (SMARCA4-HiBiT engineered line)
How it was run: as §1

T2 sequence (P51532 whole entry, the tested form may be a part): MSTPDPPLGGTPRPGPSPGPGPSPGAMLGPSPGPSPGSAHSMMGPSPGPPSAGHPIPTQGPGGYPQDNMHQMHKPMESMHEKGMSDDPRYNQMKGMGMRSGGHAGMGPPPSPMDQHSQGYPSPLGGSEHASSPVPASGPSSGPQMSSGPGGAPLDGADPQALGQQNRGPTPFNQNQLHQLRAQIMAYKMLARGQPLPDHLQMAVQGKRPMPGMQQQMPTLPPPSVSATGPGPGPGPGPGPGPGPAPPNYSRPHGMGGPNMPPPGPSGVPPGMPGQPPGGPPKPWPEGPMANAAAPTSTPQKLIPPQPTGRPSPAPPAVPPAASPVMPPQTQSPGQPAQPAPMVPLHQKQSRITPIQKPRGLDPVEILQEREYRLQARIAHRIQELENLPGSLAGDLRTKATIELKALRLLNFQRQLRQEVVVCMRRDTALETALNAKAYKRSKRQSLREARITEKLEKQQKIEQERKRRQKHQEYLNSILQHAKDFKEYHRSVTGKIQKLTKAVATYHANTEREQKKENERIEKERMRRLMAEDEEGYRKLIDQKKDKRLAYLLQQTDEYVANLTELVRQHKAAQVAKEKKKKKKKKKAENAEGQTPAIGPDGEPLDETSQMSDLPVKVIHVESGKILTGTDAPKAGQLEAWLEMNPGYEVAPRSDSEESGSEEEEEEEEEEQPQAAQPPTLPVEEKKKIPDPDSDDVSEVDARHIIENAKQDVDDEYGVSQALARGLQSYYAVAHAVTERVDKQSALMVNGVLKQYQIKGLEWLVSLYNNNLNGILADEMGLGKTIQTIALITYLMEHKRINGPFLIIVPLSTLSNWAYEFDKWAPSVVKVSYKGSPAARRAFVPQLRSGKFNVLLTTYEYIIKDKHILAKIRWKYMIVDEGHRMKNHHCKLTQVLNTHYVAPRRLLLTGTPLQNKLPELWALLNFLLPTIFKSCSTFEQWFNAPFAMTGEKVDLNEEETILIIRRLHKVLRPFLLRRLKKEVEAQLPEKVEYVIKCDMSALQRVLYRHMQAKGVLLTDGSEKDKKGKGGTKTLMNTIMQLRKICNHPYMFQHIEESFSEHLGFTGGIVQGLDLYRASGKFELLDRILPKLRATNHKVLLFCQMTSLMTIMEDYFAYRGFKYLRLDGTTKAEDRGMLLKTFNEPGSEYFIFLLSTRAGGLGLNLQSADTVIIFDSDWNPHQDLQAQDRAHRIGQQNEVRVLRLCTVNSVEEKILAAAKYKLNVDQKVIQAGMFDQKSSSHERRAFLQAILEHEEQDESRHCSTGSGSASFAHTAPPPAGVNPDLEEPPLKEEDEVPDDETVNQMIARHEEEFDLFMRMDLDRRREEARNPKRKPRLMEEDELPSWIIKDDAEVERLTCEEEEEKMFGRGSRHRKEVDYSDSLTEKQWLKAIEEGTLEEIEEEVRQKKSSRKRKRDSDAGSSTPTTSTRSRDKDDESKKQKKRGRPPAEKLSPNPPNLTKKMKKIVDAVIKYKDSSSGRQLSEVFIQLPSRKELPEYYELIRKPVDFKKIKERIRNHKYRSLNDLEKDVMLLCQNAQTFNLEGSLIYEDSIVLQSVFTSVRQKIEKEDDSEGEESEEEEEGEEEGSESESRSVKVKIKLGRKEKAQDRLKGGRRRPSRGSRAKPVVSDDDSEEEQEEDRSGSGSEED
T1 sequence (P51531 whole entry, the tested form may be a part): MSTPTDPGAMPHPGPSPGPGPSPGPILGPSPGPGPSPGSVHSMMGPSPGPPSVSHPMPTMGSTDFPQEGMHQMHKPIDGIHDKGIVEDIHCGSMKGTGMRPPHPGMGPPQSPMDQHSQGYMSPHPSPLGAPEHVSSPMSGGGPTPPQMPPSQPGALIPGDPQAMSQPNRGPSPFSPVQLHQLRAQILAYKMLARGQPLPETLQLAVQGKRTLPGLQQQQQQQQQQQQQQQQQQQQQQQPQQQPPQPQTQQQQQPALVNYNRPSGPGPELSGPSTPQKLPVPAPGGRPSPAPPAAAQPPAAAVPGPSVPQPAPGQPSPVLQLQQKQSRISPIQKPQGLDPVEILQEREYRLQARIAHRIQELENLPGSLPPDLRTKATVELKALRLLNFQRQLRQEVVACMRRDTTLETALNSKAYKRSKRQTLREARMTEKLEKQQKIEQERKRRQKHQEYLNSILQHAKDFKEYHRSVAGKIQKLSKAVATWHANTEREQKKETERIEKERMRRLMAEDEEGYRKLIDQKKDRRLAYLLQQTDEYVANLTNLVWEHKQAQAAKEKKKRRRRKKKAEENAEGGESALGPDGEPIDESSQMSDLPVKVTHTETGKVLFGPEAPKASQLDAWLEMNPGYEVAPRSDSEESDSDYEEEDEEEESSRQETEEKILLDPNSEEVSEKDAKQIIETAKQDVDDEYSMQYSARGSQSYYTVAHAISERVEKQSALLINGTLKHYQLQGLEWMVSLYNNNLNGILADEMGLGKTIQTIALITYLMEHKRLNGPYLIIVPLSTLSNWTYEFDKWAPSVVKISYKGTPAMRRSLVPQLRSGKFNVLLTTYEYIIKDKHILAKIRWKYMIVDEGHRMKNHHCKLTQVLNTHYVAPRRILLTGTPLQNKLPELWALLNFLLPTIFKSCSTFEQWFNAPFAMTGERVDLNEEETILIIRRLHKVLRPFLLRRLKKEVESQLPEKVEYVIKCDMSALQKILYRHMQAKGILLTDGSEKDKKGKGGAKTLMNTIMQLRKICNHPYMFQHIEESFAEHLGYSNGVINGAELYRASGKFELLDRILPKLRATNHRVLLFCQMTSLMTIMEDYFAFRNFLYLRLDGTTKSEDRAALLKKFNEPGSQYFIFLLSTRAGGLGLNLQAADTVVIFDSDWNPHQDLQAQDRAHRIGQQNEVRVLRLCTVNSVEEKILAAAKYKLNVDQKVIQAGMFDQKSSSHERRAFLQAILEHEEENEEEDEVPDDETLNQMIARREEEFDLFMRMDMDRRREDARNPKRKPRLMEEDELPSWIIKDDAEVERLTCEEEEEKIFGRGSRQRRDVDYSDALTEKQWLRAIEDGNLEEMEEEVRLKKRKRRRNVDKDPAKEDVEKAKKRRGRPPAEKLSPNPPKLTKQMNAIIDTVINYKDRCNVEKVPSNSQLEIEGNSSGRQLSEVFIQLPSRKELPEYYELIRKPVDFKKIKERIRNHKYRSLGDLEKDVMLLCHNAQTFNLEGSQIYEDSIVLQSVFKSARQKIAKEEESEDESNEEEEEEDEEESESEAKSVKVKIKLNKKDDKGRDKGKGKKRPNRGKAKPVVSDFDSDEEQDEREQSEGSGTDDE

DC50 [1]	SMARCA2 % Degradation @ 1 μM [1]	DC50 [2]	inhibition at 1 µM [2]	Structure (SMILES)
50 to 500 nM	+++ (+++=>70%)	500 to 5000 nM	> 70%	CN(C)c1cc(N2CCCN(c3cc(-c4ccccc4O)nnc3N)CC2)nc(C#CCNC(=O)c2cc3ncccn3n2)n1 [Compound P-139, N-(3-(4-(4-(3-amino-6-(2-hydroxyphenyl)pyridazin-4-yl)-1,4-diazepan-1-yl)-6-(dimethylamino)pyrimidin-2-yl)prop-2-yn-1-yl)pyrazolo[1,5-a]pyrimidine-2-carboxamide]
500 to 5000 nM	++ (++=30-70%)	500 to 5000 nM	30 to 70%	Cc1c(C(=O)NCC#Cc2nc(N(C)C)cc(N3CCCN(c4cc(-c5ccccc5O)nnc4N)CC3)n2)nn(C)c1C [Compound P-140, N-(3-(4-(4-(3-amino-6-(2-hydroxyphenyl)pyridazin-4-yl)-1,4-diazepan-1-yl)-6-(dimethylamino)pyrimidin-2-yl)prop-2-yn-1-yl)-1,4,5-trimethyl-1H-pyrazole-3-carboxamide]
500 to 5000 nM	??	500 to 5000 nM	30 to 70%	CNc1cc(N2CCCN(c3cc(-c4ccccc4O)nnc3N)CC2)nc(C#CCNC(=O)c2nn(C)c(C)c2C)n1 [Compound P-141, N-(3-(4-(4-(3-amino-6-(2-hydroxyphenyl)pyridazin-4-yl)-1,4-diazepan-1-yl)-6-(methylamino)pyrimidin-2-yl)prop-2-yn-1-yl)-1,4,5-trimethyl-1H-pyrazole-3-carboxamide]
50 to 500 nM	+++ (+++=>70%)	50 to 500 nM	> 70%	CC(C)(C)OC(=O)NC1CCN(CC#Cc2nccc(N3CCCN(c4cc(-c5ccccc5O)nnc4N)CC3)n2)CC1 [Compound P-142, tert-butyl (1-(3-(4-(4-(3-amino-6-(2-hydroxyphenyl)pyridazin-4-yl)-1,4-diazepan-1-yl)pyrimidin-2-yl)prop-2-yn-1-yl)piperidin-4-yl)carbamate]
50 to 500 nM	+++ (+++=>70%)	50 to 500 nM	30 to 70%	CC(C)(C)OC(=O)N1CCN(CC#Cc2nccc(N3CCCN(c4cc(-c5ccccc5O)nnc4N)CC3)n2)CC1 [Compound P-143, tert-butyl 4-(3-(4-(4-(3-amino-6-(2-hydroxyphenyl)pyridazin-4-yl)-1,4-diazepan-1-yl)pyrimidin-2-yl)prop-2-yn-1-yl)piperazine-1-carboxylate]
50 to 500 nM	+++ (+++=>70%)	50 to 500 nM	30 to 70%	Nc1nnc(-c2ccccc2O)cc1N1CCCN(c2ccnc(C#CCn3ccnn3)n2)CC1 [Compound P-144, 2-(5-(4-(2-(3-(1H-1,2,3-triazol-1-yl)prop-1-yn-1-yl)pyrimidin-4-yl)-1,4-diazepan-1-yl)-6-aminopyridazin-3-yl)phenol]
50 to 500 nM	+++ (+++=>70%)	50 to 500 nM	30 to 70%	Nc1nnc(-c2ccccc2O)cc1N1CCCN(c2ccnc(C#CCn3ccnc3)n2)CC1 [Compound P-145, 2-(5-(4-(2-(3-(1H-imidazol-1-yl)prop-1-yn-1-yl)pyrimidin-4-yl)-1,4-diazepan-1-yl)-6-aminopyridazin-3-yl)phenol]
50 to 500 nM	+++ (+++=>70%)	50 to 500 nM	30 to 70%	Nc1nnc(-c2ccccc2O)cc1N1CCCN(c2ccnc(C#CCN3CCn4nccc4C3)n2)CC1 [Compound P-146, 2-(6-amino-5-(4-(2-(3-(6,7-dihydropyrazolo[1,5-a]pyrazin-5(4H)-yl)prop-1-yn-1-yl)pyrimidin-4-yl)-1,4-diazepan-1-yl)pyridazin-3-yl)phenol]
50 to 500 nM	++ (++=30-70%)	50 to 500 nM	30 to 70%	CNCC#Cc1nccc(N2CCCN(c3cc(-c4ccccc4O)nnc3N)CC2)n1 [Compound P-147, 2-(6-amino-5-(4-(2-(3-(methylamino)prop-1-yn-1-yl)pyrimidin-4-yl)-1,4-diazepan-1-yl)pyridazin-3-yl)phenol]
50 to 500 nM	+++ (+++=>70%)	50 to 500 nM	30 to 70%	Nc1nnc(-c2ccccc2O)cc1N1CCCN(c2ccnc(C#CCn3cncn3)n2)CC1 [Compound P-148, 2-(5-(4-(2-(3-(1H-1,2,4-triazol-1-yl)prop-1-yn-1-yl)pyrimidin-4-yl)-1,4-diazepan-1-yl)-6-aminopyridazin-3-yl)phenol]
50 to 500 nM	–	50 to 500 nM	30 to 70%	Nc1nnc(-c2ccccc2O)cc1N1CCCN(c2ccnc(C#CCn3cccn3)n2)CC1 [Compound P-149, 2-(5-(4-(2-(3-(1H-pyrazol-1-yl)prop-1-yn-1-yl)pyrimidin-4-yl)-1,4-diazepan-1-yl)-6-aminopyridazin-3-yl)phenol]
50 to 500 nM	–	50 to 500 nM	30 to 70%	Nc1nnc(-c2ccccc2O)cc1N1CCCN(c2ccnc(C#CCn3cnc4ccccc43)n2)CC1 [Compound P-150, 2-(5-(4-(2-(3-(1H-benzo[d]imidazol-1-yl)prop-1-yn-1-yl)pyrimidin-4-yl)-1,4-diazepan-1-yl)-6-aminopyridazin-3-yl)phenol]
50 to 500 nM	++ (++=30-70%)	50 to 500 nM	30 to 70%	Nc1nnc(-c2ccccc2O)cc1N1CCCN(c2ccnc(C#CCn3ccc4ccccc43)n2)CC1 [Compound P-151, 2-(5-(4-(2-(3-(1H-indol-1-yl)prop-1-yn-1-yl)pyrimidin-4-yl)-1,4-diazepan-1-yl)-6-aminopyridazin-3-yl)phenol]
50 to 500 nM	+++ (+++=>70%)	50 to 500 nM	30 to 70%	CN(C)CC#Cc1nccc(N2CCCN(c3cc(-c4ccccc4O)nnc3N)CC2)n1 [Compound P-152, 2-(6-amino-5-(4-(2-(3-(dimethylamino)prop-1-yn-1-yl)pyrimidin-4-yl)-1,4-diazepan-1-yl)pyridazin-3-yl)phenol]
50 to 500 nM	++ (++=30-70%)	50 to 500 nM	30 to 70%	CC(=O)N(C)C/C=C/c1nccc(N2CCN(c3cc(-c4ccccc4O)nnc3N)CC[C@H]2C)n1 [Compound P-153, N-[3-(4-{(R)-4-[3-amino-6-(o-hydroxyphenyl)-4-pyridazinyl]-7-methyl-1,4-diazepan-1-yl}-2-pyrimidinyl)-2-propenyl]-N-methylacetamide]
50 to 500 nM	++ (++=30-70%)	50 to 500 nM	< 30%	C[C@@H]1CCN(c2cc(-c3ccccc3O)nnc2N)CCN1c1ccnc(C#CCN(C)CCF)n1 [Compound P-154, o-{5-[(R)-4-(2-{3-[(2-fluoroethyl)-N-methylamino]-1-propynyl}-4-pyrimidinyl)-5-methyl-1,4-diazepan-1-yl]-6-amino-3-pyridaziny1} phenol]
50 to 500 nM	++ (++=30-70%)	50 to 500 nM	30 to 70%	C[C@@H]1CCN(c2cc(-c3ccccc3O)nnc2N)CCN1c1ccnc(C#CCN(C)CC(F)F)n1 [Compound P-155, o-{5-[(R)-4-(2-{3-[(2,2-difluoroethyl)-N-methylamino]-1-propynyl}-4-pyrimidinyl)-5-methyl-1,4-diazepan-1-yl]-6-amino-3-pyridazinyl}phenol]
50 to 500 nM	++ (++=30-70%)	500 to 5000 nM	< 30%	CN(C)CC#Cc1nccc(N2C[C@H]3CC[C@@H](C2)[C@H]3Oc2cc(-c3ccccc3O)nnc2N)n1 [Compound P-156, o-{5-[(1R,5S,8r)-3-{2-[3-(dimethylamino)-1-propynyl]-4-pyrimidinyl}-3-azabicyclo[3.2.1]oct-8-yloxy]-6-amino-3-pyridazinyl}phenol]
50 to 500 nM	??	50 to 500 nM	30 to 70%	C/C=C/c1nccc(N2CCCN(c3cc(-c4ccccc4O)nnc3N)CC2)n1 [Compound P-158, o-(6-amino-5-{4-[2-(1-propenyl)-4-pyrimidinyl]-1,4-diazepan-1-yl}-3-pyridazinyl)phenol]
50 to 500 nM	+++ (+++=>70%)	50 to 500 nM	30 to 70%	COC/C=C/c1nccc(N2CCCN(c3cc(-c4ccccc4O)nnc3N)CC2)n1 [Compound P-159, o-(6-amino-5-{4-[2-(3-methoxy-1-propenyl)-4-pyrimidinyl]-1,4-diazepan-1-yl}-3-pyridazinyl)phenol]

Structure (SMILES)	DC50 [1]	SMARCA2 % Degradation @ 1 μM [1]	DC50 [2]	inhibition at 1 µM [2]
CN(C)CC#Cc1nccc(N2C3CCC2CN(c2cc(-c4ccccc4O)nnc2N)CC3)n1 (centres unmarked) [Compound P-157, o-[6-amino-5-(9-{2-[3-(dimethylamino)-1-propynyl]-4-pyrimidinyl}-3,9-diazabicyclo[4.2.1]non-3-yl)-3-pyridazinyl]phenol]	< 50 nM	++ (++=30-70%)	50 to 500 nM	30 to 70%
C[C@@H]1CCN(c2cc(-c3ccccc3O)nnc2N)CCN1c1ccnc(C#CCN2C3CCC2COC3)n1 [Compound P-160, o-{5-[(R)-5-methyl-4-(2-{3-(3-oxa-8-azabicyclo[3.2.1]oct-8-yl)-1-propynyl}-4-pyrimidinyl)-1,4-diazepan-1-yl]-6-amino-3-pyridazinyl}phenol]	50 to 500 nM	+++ (+++=>70%)	50 to 500 nM	30 to 70%
